Data: the NIST ThermoML archive (doi:10.1021/je060415l)
“And” between values parts separate entries of the source, which are not always exact repeats. Identical values can stand only once.

Assay: isobaric coefficient of expansion
Conditions: Liquid, expansion method

CO [methanol]
Conditions	isobaric coefficient of expansion
196.17 K, 590 kPa	0.00112 1/K
196.97 K, 80030 kPa	0.000894 1/K
198.11 K, 590 kPa	0.00112 1/K
199.3 K, 80030 kPa	0.000894 1/K
200.13 K, 590 kPa	0.00112 1/K
201.61 K, 80030 kPa	0.000891 1/K
202.14 K, 590 kPa	0.00112 1/K and 0.00113 1/K
203.94 K, 80030 kPa	0.000891 1/K
204.09 K, 590 kPa	0.00112 1/K
206.06 K, 590 kPa	0.00112 1/K
206.3 K, 80030 kPa	0.000888 1/K
208.02 K, 590 kPa	0.00112 1/K
208.16 K, 20010 kPa	0.00105 1/K
208.68 K, 80030 kPa	0.000886 1/K
209.97 K, 590 kPa	0.00112 1/K and 0.00114 1/K
210.16 K, 20010 kPa	0.00104 1/K
210.17 K, 45100 kPa	0.000966 1/K
211.07 K, 80030 kPa	0.000883 1/K
211.93 K, 590 kPa	0.00111 1/K and 0.00112 1/K
212.17 K, 20010 kPa	0.00104 1/K
212.17 K, 45100 kPa	0.000968 1/K
213.46 K, 80030 kPa	0.00088 1/K
213.91 K, 590 kPa	0.00112 1/K and 0.00111 1/K
214.17 K, 20010 kPa	0.00104 1/K
214.17 K, 45100 kPa	0.000963 1/K
215.9 K, 590 kPa	0.00112 1/K
216 K, 80030 kPa	0.000874 1/K
216.17 K, 20010 kPa	0.00104 1/K
216.17 K, 45100 kPa	0.000964 1/K
217.87 K, 590 kPa	0.00112 1/K
218.17 K, 20010 kPa	0.00104 1/K
218.18 K, 45100 kPa	0.000965 1/K
218.19 K, 590 kPa	0.00111 1/K
219.84 K, 590 kPa	0.00112 1/K
220.16 K, 590 kPa	0.00113 1/K
220.18 K, 20010 kPa	0.00104 1/K
220.18 K, 45100 kPa	0.000962 1/K
220.38 K, 80030 kPa	0.000872 1/K
221.82 K, 590 kPa	0.00111 1/K
222.14 K, 590 kPa	0.00111 1/K
222.17 K, 20010 kPa	0.00104 1/K
222.18 K, 45100 kPa	0.000966 1/K
222.8 K, 80030 kPa	0.000867 1/K
223.82 K, 590 kPa	0.00112 1/K
224.15 K, 590 kPa	0.00111 1/K
224.17 K, 20010 kPa	0.00104 1/K
224.17 K, 45100 kPa	0.00096 1/K
225.25 K, 80030 kPa	0.000863 1/K
225.86 K, 590 kPa	0.00111 1/K
226.15 K, 590 kPa	0.00112 1/K
226.16 K, 45100 kPa	0.000962 1/K
226.17 K, 20010 kPa	0.00104 1/K
227.72 K, 80030 kPa	0.000861 1/K
227.95 K, 590 kPa	0.00112 1/K
228.15 K, 590 kPa	0.00112 1/K
228.16 K, 20010 kPa	0.00104 1/K
228.16 K, 45100 kPa	0.000958 1/K
230.04 K, 590 kPa	0.00111 1/K
230.16 K, 20010 kPa	0.00105 1/K
230.17 K, 590 kPa	0.00112 1/K
230.17 K, 45100 kPa	0.000957 1/K
230.17 K, 80030 kPa	0.00086 1/K
232.14 K, 590 kPa	0.00112 1/K
232.17 K, 20010 kPa	0.00104 1/K
232.17 K, 45100 kPa	0.000959 1/K
232.18 K, 590 kPa	0.00113 1/K
232.57 K, 80030 kPa	0.000869 1/K
234.16 K, 590 kPa	0.00113 1/K
234.17 K, 20010 kPa	0.00103 1/K
234.17 K, 45100 kPa	0.000956 1/K
234.19 K, 590 kPa	0.00112 1/K
234.98 K, 80030 kPa	0.000859 1/K
236.16 K, 590 kPa	0.00112 1/K
236.17 K, 20010 kPa	0.00104 1/K
236.17 K, 45100 kPa	0.000953 1/K
236.18 K, 590 kPa	0.00112 1/K
237.42 K, 80030 kPa	0.00086 1/K
238.17 K, 590 kPa	0.00112 1/K
238.17 K, 20010 kPa	0.00103 1/K
238.17 K, 45100 kPa	0.000949 1/K
239.85 K, 80030 kPa	0.000855 1/K
240.17 K, 590 kPa	0.00112 1/K
240.17 K, 45100 kPa	0.000949 1/K
240.25 K, 20010 kPa	0.00103 1/K
242.17 K, 590 kPa	0.00112 1/K
242.17 K, 45100 kPa	0.000942 1/K
242.25 K, 20010 kPa	0.00103 1/K
242.29 K, 80030 kPa	0.000853 1/K
244.18 K, 590 kPa	0.00112 1/K
244.18 K, 45100 kPa	0.000941 1/K
244.19 K, 20010 kPa	0.00103 1/K
244.74 K, 80030 kPa	0.000851 1/K
246.19 K, 590 kPa	0.00112 1/K
246.19 K, 20010 kPa	0.00104 1/K
247.21 K, 80030 kPa	0.000847 1/K
248.17 K, 20010 kPa	0.00104 1/K
248.17 K, 45100 kPa	0.000942 1/K
248.19 K, 590 kPa	0.00112 1/K
249.69 K, 80030 kPa	0.000847 1/K
250.17 K, 20010 kPa	0.00104 1/K
250.17 K, 45100 kPa	0.000939 1/K
250.18 K, 590 kPa	0.00112 1/K
252.18 K, 590 kPa	0.00113 1/K
252.18 K, 20010 kPa	0.00103 1/K
252.18 K, 45100 kPa	0.000938 1/K
252.2 K, 80030 kPa	0.000842 1/K
254.18 K, 590 kPa	0.00113 1/K
254.18 K, 20010 kPa	0.00103 1/K
254.18 K, 45100 kPa	0.00094 1/K
254.72 K, 80030 kPa	0.000837 1/K
256.17 K, 590 kPa	0.00114 1/K
256.17 K, 20010 kPa	0.00103 1/K
256.18 K, 45100 kPa	0.000937 1/K
257.2 K, 80030 kPa	0.00084 1/K
258.17 K, 590 kPa	0.00113 1/K
258.17 K, 20010 kPa	0.00104 1/K
258.18 K, 45100 kPa	0.000937 1/K
259.68 K, 80030 kPa	0.000841 1/K
260.18 K, 590 kPa	0.00113 1/K
260.18 K, 45100 kPa	0.000932 1/K
262.17 K, 590 kPa	0.00114 1/K
262.17 K, 20010 kPa	0.00103 1/K
262.17 K, 45100 kPa	0.000936 1/K
262.21 K, 80030 kPa	0.000841 1/K
264.17 K, 20010 kPa	0.00103 1/K
264.17 K, 45100 kPa	0.000938 1/K
264.77 K, 80030 kPa	0.000839 1/K
266.17 K, 590 kPa	0.00113 1/K
266.17 K, 20010 kPa	0.00103 1/K
266.17 K, 45100 kPa	0.000942 1/K
267.34 K, 80030 kPa	0.000835 1/K
268.16 K, 20010 kPa	0.00103 1/K
268.17 K, 590 kPa	0.00114 1/K
268.17 K, 45100 kPa	0.000934 1/K
269.32 K, 80030 kPa	0.000834 1/K
270.16 K, 590 kPa	0.00114 1/K
270.16 K, 20010 kPa	0.00104 1/K
272.14 K, 45100 kPa	0.00094 1/K
272.52 K, 80030 kPa	0.000831 1/K
274.14 K, 45100 kPa	0.000947 1/K
274.15 K, 20010 kPa	0.00104 1/K
275.11 K, 80030 kPa	0.000835 1/K
276.12 K, 590 kPa	0.00114 1/K
276.14 K, 45100 kPa	0.000938 1/K
276.15 K, 20010 kPa	0.00104 1/K
277.69 K, 80030 kPa	0.000835 1/K
278.13 K, 45100 kPa	0.00094 1/K
278.15 K, 20010 kPa	0.00104 1/K
278.16 K, 590 kPa	0.00115 1/K
280.14 K, 45100 kPa	0.00094 1/K
280.15 K, 20010 kPa	0.00104 1/K
280.16 K, 590 kPa	0.00115 1/K
280.28 K, 80030 kPa	0.000833 1/K
282.13 K, 45100 kPa	0.00094 1/K
282.15 K, 590 kPa	0.00116 1/K
282.15 K, 20010 kPa	0.00104 1/K
282.88 K, 80030 kPa	0.000832 1/K
284.13 K, 45100 kPa	0.000945 1/K
284.14 K, 590 kPa	0.00116 1/K
284.14 K, 20010 kPa	0.00104 1/K
285.53 K, 80030 kPa	0.000829 1/K
286.15 K, 590 kPa	0.00118 1/K
286.15 K, 20010 kPa	0.00105 1/K
288.14 K, 45100 kPa	0.000945 1/K
288.16 K, 590 kPa	0.00117 1/K
288.17 K, 80030 kPa	0.000826 1/K
289.13 K, 590 kPa	0.00118 1/K
290.13 K, 45100 kPa	0.000945 1/K
290.14 K, 20010 kPa	0.00106 1/K
290.16 K, 590 kPa	0.00117 1/K
290.79 K, 80030 kPa	0.000832 1/K
291.13 K, 590 kPa	0.00118 1/K
292.14 K, 45100 kPa	0.000943 1/K
292.15 K, 20010 kPa	0.00104 1/K
292.16 K, 590 kPa	0.00117 1/K
293.12 K, 590 kPa	0.00119 1/K
293.4 K, 80030 kPa	0.000846 1/K
294.13 K, 45100 kPa	0.000938 1/K
294.14 K, 20010 kPa	0.00105 1/K
294.16 K, 590 kPa	0.00118 1/K
295.12 K, 590 kPa	0.0012 1/K
296.02 K, 80030 kPa	0.000842 1/K
296.13 K, 45100 kPa	0.00094 1/K
296.14 K, 20010 kPa	0.00105 1/K
296.16 K, 590 kPa	0.00117 1/K
297.12 K, 590 kPa	0.00118 1/K
298.13 K, 45100 kPa	0.000942 1/K
298.15 K, 20010 kPa	0.00105 1/K
298.17 K, 590 kPa	0.00118 1/K
298.65 K, 80030 kPa	0.00085 1/K
300.16 K, 590 kPa	0.00119 1/K
301.27 K, 80030 kPa	0.000833 1/K
